In patent publication US6989384B2, “Antipicornaviral compounds and compositions, their pharmaceutical uses, and materials for their synthesis” (Agouron Pharmaceuticals, Inc., priority 2000, dated 2006):

Target: T1, rhinovirus 3C protease from HRV serotype-14 (Human rhinovirus 14, UniProt P03303)
T1 construct: Recombinant rhinovirus 3C proteases; made in house
Experiment: Inhibition of rhinovirus 3C protease activity (FRET assay), HRV-14
Type: biochemical
Settings: HRV-14 3C protease, progress curves, enzyme start; for kinact/KI: read-out: Protease Inhibition kobs/I
Method: Stock solutions (50 mM, in DMSO) of various compounds were prepared; dilutions were in the same solvent. Recombinant rhinovirus 3C proteases (see Birch et al., “Purification of recombinant human rhinovirus 14 3C protease expressed in Escherichia coli,” Protein Expr. Pur. 1995, 6(5), 609–618) from serotypes 14, 16, and 2 were prepared by the following standard chromatographic procedures: (1) ion exchange using Q Sepharose Fast Flow from Pharmacia; (2) affinity chromatography using Affi-Gel Blue from Biorad; and (3) sizing using Sephadex G-100 from Pharmacia. Each assay sample contained 2% DMSO, 50 mM tris pH 7.6, 1 mM EDTA, a test compound at the indicated concentration, approximately 1 μM substrate, and 50–100 nM protease. The kobs/I values were obtained from reactions initiated by addition of enzyme rather than substrate. RVP activity was measured in the fluorescence resonance energy transfer assay. The substrate was (N-terminal) DABCYL-(Gly-Arg-Ala-Val-Phe-Gln-Gly-Pro-Val-Gly)-EDANS. In the uncleaved peptide, the EDANS fluorescence was quenched by the proximal DABCYL group. When the peptide was cleaved, the quenching was relieved, and activity was measured as an increase in fluorescence signal. In the Table, unless otherwise indicated, all data are for rhinovirus 3C protease from HRV serotype-14 (produced from the infectious cDNA clone constructed by Dr. Robert Rueckert, Institute for Molecular Virology, University of Wisconsin, Madison, Wis.). The data in the column designated kobs/[I] were measured from progress curves in enzyme start experiments.

T1 sequence (P03303 1538-1719): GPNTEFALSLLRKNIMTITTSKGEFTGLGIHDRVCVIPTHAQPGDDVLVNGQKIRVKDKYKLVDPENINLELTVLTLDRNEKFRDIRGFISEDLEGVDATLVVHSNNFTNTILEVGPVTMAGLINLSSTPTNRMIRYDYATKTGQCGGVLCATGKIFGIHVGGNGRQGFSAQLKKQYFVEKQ

## CCOC(=O)/C=C/[C@H](C[C@@H]1CCNC1=O)NC(=O)c1cc2ccccc2cc1NC(C)=O [Compound 22, 4S-[(3-acetylamino-naphthalene-2-carbonyl)-amino]-5-(2-oxo-pyrrolidin-3S-yl)-pent-2-enoic acid ethyl ester]
  Protease Inhibition kobs/I: 673 M⁻¹ s⁻¹
  kinact/KI: 581 M⁻¹ s⁻¹

## CCOC(=O)/C=C/[C@H](C[C@@H]1CCNC1=O)NC(=O)/C=C/c1ccc(OC)cc1 [Compound 16, 4S-[3-(methoxy-phenyl)-acryloylamino]-5-(2-oxo-pyrrolidin-3S-yl)-pent-2-enoic acid ethyl ester]
  kinact/KI: 664 M⁻¹ s⁻¹

## CCOC(=O)/C=C/[C@H](C[C@@H]1CCNC1=O)NC(=O)c1cc2ccccc2cc1N [Compound 69, 4S-[(3-amino-naphthalene-2-carbonyl)-amino]-5-(2-oxo-pyrrolidin-3S-yl)-pent-2-enoic acid ethyl ester]
  kinact/KI: 142 M⁻¹ s⁻¹

## CCOC(=O)/C=C/[C@H](C[C@@H]1CCNC1=O)NC(=O)Nc1cc(C)cc(C)c1 [Compound 58, 4S-[3-(3,5-dimethyl-phenyl)-ureido]-5-(2-oxo-pyrrolidin-3S-yl)-pent-2-enoic acid ethyl ester]
  kinact/KI: 185 M⁻¹ s⁻¹

## CCOC(=O)/C=C/[C@H](C[C@@H]1CCNC1=O)NC(=O)c1nc2ccccc2[nH]1 [Compound 10, 4-[(1H-benzoimidazole-2-carbonyl)-amino]-5-(2-oxo-pyrrolidin-3S-yl)-pent-2-enoic acid ethyl ester]
  kinact/KI: 55 M⁻¹ s⁻¹

## CCOC(=O)/C=C/[C@H](C[C@@H]1CCNC1=O)NC(=O)c1cc2cc(F)ccc2[nH]1 [Compound 39, 4S-[(5-Fluoro-1H-indole-2-carbonyl)-amino]-5-(2-oxo-pyrrolidin-3S-yl)-pent-2-enoic acid ethyl ester]
  kinact/KI: 615 M⁻¹ s⁻¹

## CCOC(=O)/C=C/[C@H](C[C@@H]1CCNC1=O)NC(=O)c1cc2cc(Cl)ccc2[nH]1 [Compound 40, 4S-[(5-Chloro-1H-indole-2-carbonyl)-amino]-5-(2-oxo-pyrrolidin-3S-yl)-pent-2-enoic acid ethyl ester]
  kinact/KI: 1270 M⁻¹ s⁻¹

## CCOC(=O)/C=C/[C@H](C[C@@H]1CCNC1=O)NC(=O)c1nc2ccccc2nc1O [Compound 7, 4S-[(3-hydroxyquinoxaline-2-carbonyl)-amino]-5-(2-oxopyrrolidin-3S-yl)-pent-2-enoic acid ethyl ester]
  kinact/KI: 36 M⁻¹ s⁻¹

## CCOC(=O)/C=C/[C@H](C[C@@H]1CCNC1=O)NC(=O)c1cc2cccc([N+](=O)[O-])c2[nH]1 [Compound 42, 4S-[(7-Nitro-1H-indole-2-carbonyl)-amino]-5-(2-oxo-pyrrolidin-3S-yl)-pent-2-enoic acid ethyl ester]
  kinact/KI: 272 M⁻¹ s⁻¹

## CCOC(=O)/C=C/[C@H](C[C@@H]1CCNC1=O)NC(=O)c1ccc2cc(OC)c(OC)cc2c1 [Compound 18, 4S-[(6,7-dimethoxy-naphthalene-2-carbonyl)-amino]-5-(2-oxo-pyrrolidin-3S-yl)-pent-2-enoic acid ethyl ester]
  kinact/KI: 262 M⁻¹ s⁻¹

## CCOC(=O)/C=C/[C@H](C[C@H]1CCNC1=O)NC(=O)c1ccc2ccccc2c1 [Compound 2, 4S-[(naphthalene-2-carbonyl)-amino]-5-(2-oxo-pyrrolidin-3-R-yl)-pent-2-enoic acid ethyl ester]
  kinact/KI: 400 M⁻¹ s⁻¹

## CCOC(=O)/C=C/[C@H](C[C@@H]1CCNC1=O)NC(=O)/C=C/c1ccc(Cl)cc1 [Compound 11, 4S-[3-(4-chloro-phenyl)-acryloylamino]-5-(2-oxo-pyrrolidin-3S-yl)-pent-2-enoic acid ethyl ester]
  kinact/KI: 750 M⁻¹ s⁻¹

## CCOC(=O)/C=C/[C@H](C[C@@H]1CCNC1=O)NC(=O)c1ccc2cc(O)ccc2c1 [Compound 65, 4S-[(6-hydroxy-naphthalene-2-carbonyl)-amino]-5-(2-oxo-pyrrolidin-3S-yl)-pent-2-enoic acid ethyl ester]
  kinact/KI: 570 M⁻¹ s⁻¹

## CCOC(=O)/C=C/[C@H](C[C@@H]1CCNC1=O)NC(=O)Cc1cccc(Cl)c1 [Compound 63, 4S-[2-(3-chloro-phenyl)-acetylamino]-5-(2-oxo-pyrrolidin-3S-yl)-pent-2-enoic acid ethyl ester]
  kinact/KI: 7 M⁻¹ s⁻¹
